Laboratory results from ChEMBL document CHEMBL1128349 (J Med Chem, 1995).

Columns and labels:
[1] = target: Voltage-gated L-type calcium channel (Rattus norvegicus, UniProt P22002+Q02485+P27732); assay: Displacement of [3H]nitrendipine from rat brain L-type [Ca2+] channel; type: tissue-based
[2] = target: T1, Alpha-2A adrenergic receptor (Homo sapiens, UniProt P08913); assay: Ability to displace [3H]rauwolscine from cloned human Alpha-2A adrenergic receptor
T1 sequence (P08913 whole entry): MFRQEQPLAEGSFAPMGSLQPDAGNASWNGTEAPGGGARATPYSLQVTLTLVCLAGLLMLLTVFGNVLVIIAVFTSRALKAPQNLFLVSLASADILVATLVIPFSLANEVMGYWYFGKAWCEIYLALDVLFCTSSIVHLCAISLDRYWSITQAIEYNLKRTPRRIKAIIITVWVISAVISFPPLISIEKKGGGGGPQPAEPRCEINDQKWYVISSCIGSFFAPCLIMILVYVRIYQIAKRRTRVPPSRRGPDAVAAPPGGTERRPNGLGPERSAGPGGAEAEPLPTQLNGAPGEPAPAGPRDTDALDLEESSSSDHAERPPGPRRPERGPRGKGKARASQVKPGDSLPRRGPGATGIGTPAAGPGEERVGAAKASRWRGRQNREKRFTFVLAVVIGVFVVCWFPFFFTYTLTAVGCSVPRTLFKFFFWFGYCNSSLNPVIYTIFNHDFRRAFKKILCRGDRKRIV

[3] = target: T2, Alpha-2B adrenergic receptor (Homo sapiens, UniProt P18089)
T2 sequence (P18089 whole entry): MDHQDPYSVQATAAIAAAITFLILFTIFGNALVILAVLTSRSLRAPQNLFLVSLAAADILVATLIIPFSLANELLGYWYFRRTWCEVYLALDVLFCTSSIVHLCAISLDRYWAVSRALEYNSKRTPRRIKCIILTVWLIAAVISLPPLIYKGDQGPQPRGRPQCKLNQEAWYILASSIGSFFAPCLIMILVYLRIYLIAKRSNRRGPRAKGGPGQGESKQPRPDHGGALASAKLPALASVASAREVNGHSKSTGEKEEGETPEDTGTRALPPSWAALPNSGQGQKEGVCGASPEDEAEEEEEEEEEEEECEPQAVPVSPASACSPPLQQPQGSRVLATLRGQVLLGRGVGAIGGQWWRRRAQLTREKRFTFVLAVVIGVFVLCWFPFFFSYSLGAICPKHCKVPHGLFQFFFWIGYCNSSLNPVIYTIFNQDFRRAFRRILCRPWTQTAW

[4] = target: T3, Alpha-1D adrenergic receptor (Homo sapiens, UniProt P25100); assay: Ability to displace [3H]prazosin from cloned human Alpha-1D adrenergic receptor
T3 sequence (P25100 whole entry): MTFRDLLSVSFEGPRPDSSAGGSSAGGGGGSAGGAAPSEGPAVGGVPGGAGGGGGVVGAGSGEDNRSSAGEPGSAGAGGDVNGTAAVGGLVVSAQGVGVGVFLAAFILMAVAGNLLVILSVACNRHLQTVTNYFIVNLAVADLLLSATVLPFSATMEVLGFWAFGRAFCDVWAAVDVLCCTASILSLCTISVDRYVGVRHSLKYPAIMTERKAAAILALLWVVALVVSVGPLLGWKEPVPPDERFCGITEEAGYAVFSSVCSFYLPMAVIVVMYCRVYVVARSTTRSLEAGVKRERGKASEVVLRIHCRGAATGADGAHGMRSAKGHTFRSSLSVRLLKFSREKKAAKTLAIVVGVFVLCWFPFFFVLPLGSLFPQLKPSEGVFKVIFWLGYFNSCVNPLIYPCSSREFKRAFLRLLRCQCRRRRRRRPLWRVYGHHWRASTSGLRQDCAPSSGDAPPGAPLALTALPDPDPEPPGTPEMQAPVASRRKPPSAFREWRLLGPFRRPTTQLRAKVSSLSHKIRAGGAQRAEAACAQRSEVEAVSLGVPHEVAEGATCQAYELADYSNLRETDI

[5] = target: T4, Alpha-1B adrenergic receptor (Homo sapiens, UniProt P35368); assay: Ability to displace [3H]prazosin from cloned human Alpha-1B adrenergic receptor
T4 sequence (P35368 whole entry): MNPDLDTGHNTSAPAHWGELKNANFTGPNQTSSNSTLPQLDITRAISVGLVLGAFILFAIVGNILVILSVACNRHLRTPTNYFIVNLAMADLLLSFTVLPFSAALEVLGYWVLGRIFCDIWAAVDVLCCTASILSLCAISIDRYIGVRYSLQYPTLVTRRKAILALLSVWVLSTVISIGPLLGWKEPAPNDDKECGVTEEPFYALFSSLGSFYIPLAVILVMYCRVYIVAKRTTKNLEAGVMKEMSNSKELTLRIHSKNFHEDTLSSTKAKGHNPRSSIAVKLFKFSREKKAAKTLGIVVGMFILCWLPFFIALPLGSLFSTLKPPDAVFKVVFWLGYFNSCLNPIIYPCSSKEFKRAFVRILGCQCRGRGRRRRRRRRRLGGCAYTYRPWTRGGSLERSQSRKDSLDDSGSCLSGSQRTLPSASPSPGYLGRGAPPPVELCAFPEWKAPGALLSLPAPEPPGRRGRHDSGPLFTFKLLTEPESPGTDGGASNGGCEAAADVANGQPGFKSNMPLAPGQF

[6] = target: T5, Alpha-1A adrenergic receptor (Homo sapiens, UniProt P35348)
T5 sequence (P35348 whole entry): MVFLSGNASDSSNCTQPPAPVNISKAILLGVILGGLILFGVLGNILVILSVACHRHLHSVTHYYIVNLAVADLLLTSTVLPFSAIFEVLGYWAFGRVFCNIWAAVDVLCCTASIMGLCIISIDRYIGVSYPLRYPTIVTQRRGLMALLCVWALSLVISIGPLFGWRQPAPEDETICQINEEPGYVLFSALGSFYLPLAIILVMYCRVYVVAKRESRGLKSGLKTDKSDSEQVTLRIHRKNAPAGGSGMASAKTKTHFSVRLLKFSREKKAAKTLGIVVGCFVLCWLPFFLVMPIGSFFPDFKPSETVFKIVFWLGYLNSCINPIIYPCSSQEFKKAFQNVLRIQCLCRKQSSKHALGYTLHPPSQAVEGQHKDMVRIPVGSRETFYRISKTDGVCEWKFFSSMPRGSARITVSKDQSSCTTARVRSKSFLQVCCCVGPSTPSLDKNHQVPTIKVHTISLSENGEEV

[7] = target: T6, Alpha-2C adrenergic receptor (Homo sapiens, UniProt P18825); assay: Ability to displace [3H]rauwolscine from cloned human Alpha-2C adrenergic receptor
T6 sequence (P18825 whole entry): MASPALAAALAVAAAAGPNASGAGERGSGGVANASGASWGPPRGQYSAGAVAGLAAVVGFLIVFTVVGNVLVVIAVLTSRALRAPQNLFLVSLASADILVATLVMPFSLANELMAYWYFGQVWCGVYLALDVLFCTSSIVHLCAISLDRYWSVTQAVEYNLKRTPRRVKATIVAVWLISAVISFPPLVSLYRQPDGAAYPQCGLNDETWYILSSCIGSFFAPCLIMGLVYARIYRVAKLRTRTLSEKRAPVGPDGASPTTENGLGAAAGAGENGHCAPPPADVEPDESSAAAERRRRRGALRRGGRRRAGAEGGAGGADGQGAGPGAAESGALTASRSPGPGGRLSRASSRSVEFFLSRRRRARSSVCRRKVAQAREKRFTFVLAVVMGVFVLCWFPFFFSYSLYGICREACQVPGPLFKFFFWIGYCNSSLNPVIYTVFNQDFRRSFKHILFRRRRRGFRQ

## CO/C(O)=C1\C(C)=NC(C)=C(C(=O)NCCCN2CCC(c3ccccc3)(c3ccccc3)CC2)[C@H]1c1ccc([N+](=O)[O-])cc1
[1]
  Ki: 670 nM
[2]
  Ki: […]

## CO/C(O)=C1\C(C)=NC(C)=C(C(=O)OCCCN2CCC(c3ccccc3)(c3ccccc3)CC2)C1c1ccc([N+](=O)[O-])cc1 (configuration not stated)
[3]
  Ki: 570 nM
[1]
  Ki: 250 nM
[4]
  Ki: 210 nM
[5]
  Ki: 50 nM
[6]
  Ki: 0.32 nM
[7]
  Ki: 300 nM
[2]
  Ki: 800 nM

## COc1cc2nc(N3CCN(C(=O)c4ccco4)CC3)nc(N)c2cc1OC [PRAZOSIN]
[1]
  Ki: > 10000 nM

## COc1cc2nc(N3CCN(C(=O)C4CCCO4)CC3)nc(N)c2cc1OC (configuration not stated) [TERAZOSIN]
[4]
  Ki: 3.7 nM
[2]
  Ki: 550 nM
